Test results as given in patent US12329753B2, “Phosphodiesterase inhibitor treatment” (Cyrano Therapeutics, Inc., priority 2008, dated 2025).

Assays:
Assay type in all cases: in vivo, human
[1] = system: cAMP; test: Parotid saliva cAMP, 96 plate spectrophotometric assay
Method: Parotid saliva was collected from each patient by application of a Lashley cup over Stensen's duct with lingual stimulation by placement of concentrated lemon juice. Saliva was collected in plastic tubes and stored at −20° C. until assayed. cAMP and cGMP were measured in saliva by a sensitive 96 plate spectrophotometric assay (R&D Systems, Minneapolis, MN).
All patients were placed in a fixed design open label clinical trial with treatment with oral theophylline. Treatment consisted of fixed treatment periods of two-eight months with sequential doses of the drug at 200 mg, 400 mg and 600 mg. At termination of each of these intervals, patients returned to study site for reevaluation. At the end of each interval subjective responses to treatment were measured with a modification of the 0-100 scale previously used (vs). […] Theophylline was assayed by a fluorescence polarization assay (Abbott, Chicago, IL), as previously described.
Data for the cyclic nucleotides from these 31 patients was not analyzed until the entire study of the 312 patients in Example 1 was assembled and analyzed in its entirety. […] The two patient groups were also analyzed post hoc with respect to type of smell loss and etiology of smell loss.

[2] = system: patients with hyposmia; test: Side effects of intranasal theophylline; conditions: intranasal 20 μg per naris once a day
Method: The patients inserted a plastic syringe containing 0.4 ml of fluid (20 μg theophylline) into each naris once a day. […] The drug dose was delivered through a plastic nipple which fitted snugly onto the filled syringe which was attached directly to the nipple. One nipple was supplied for each set of two syringes in each application kit. The patient fitted the nipple on one syringe, placed the nipple securely into the lower naris and injected the contents of the syringe directly into the lower vault of one naris accompanied by a modest inhalation. This technique was then used for the second syringe used for the other naris. The patients were instructed to administer the drug either seated or standing with their head in an erect, vertical position.

[3] = Blood serum theophylline, fluorescence polarization assay (Example 1)
Method: Patients returned for reevaluation after two to four months of treatment. Measurements of blood serum theophylline were measured by a fluorescence polarization assay (Abbott, Chicago, IL). At this time, subjective changes in smell function were measured independently (compared to patient's memory of previous normal smell function monitored by use of the patients' daily measurements) using the scale from −100-0-+100 previously described (vs). After independently recording their subjective responses, smell function was measured for all four odors with DT, RT, ME and H determined without recourse to prior measurements.

[4] = system: patients with hyposmia; test: Pilot study of intranasal theophylline, subjective taste and smell response
Excerpt: Ten patients with hyposmia were selected from among 400 patients with hyposmia to participate in a pilot study to determine safety and efficacy of intranasal theophylline for the treatment of hyposmia. […] Selection for inclusion in the intranasal study was based upon several criteria. 1) non-response to oral theophylline; 2) severe side effects with oral theophylline that prevented reaching a dose of sufficient strength to restore smell function; and/or 3) preference for intranasal medication over oral medication.
Subjective responses to treatment were obtained independent of any interaction with the clinical staff by using a scale of 0-100 to measure response of taste function and smell function to treatment with 0 indicating no response, 100 indicating return to normal function and intermediate numbers indicating an intermediate response.
The patients inserted a plastic syringe containing 0.4 ml of fluid (20 μg theophylline) into each naris once a day. […] The drug dose was delivered through a plastic nipple which fitted snugly onto the filled syringe which was attached directly to the nipple. One nipple was supplied for each set of two syringes in each application kit. The patient fitted the nipple on one syringe, placed the nipple securely into the lower naris and injected the contents of the syringe directly into the lower vault of one naris accompanied by a modest inhalation. […]

For Cn1c(=O)c2[nH]cnc2n(C)c1=O [theophylline], the “parotid saliva cAMP” value ([1]; oral 400 mg, patients with improved smell function (12), mean ± SEM) was 1.22 ± 0.33 pmol/mL, the “change of saliva cAMP” value ([1]; oral 200, 400, 600 mg, unimproved patients) was “essentially no change” and the side effects [2] was “no side effects”. For the same molecule, the mean serum theophylline ([3]; oral 200 mg daily) was 4.0±0.2, the mean serum theophylline ([3]; oral 400 mg daily) was 7.4±0.4 and the “subjective improvement in both taste and smell function over prior results with oral theophylline” value ([4]; intranasal 20 μg per naris once a day, 4 weeks, six of eight patients) was 10-20%. For the same molecule, the “further loss of smell while in the study” value ([4]; intranasal 20 μg per naris, after stopping oral theophylline) was “No patient exhibited a further of loss of smell”.
